Like-named read-outs stand apart in the source and are kept apart here.

The target of the experiment is Nav 1.7 (Homo sapiens (Human), UniProt Q15858). Description: in-vitro Nav 1.7 PX (IC50). The class given is cell-based.
The mark [1] stands for this setting: in-vitro Nav 1.7 PX data (PatchXpress).

Chain of Nav 1.7 (Q15858 whole entry): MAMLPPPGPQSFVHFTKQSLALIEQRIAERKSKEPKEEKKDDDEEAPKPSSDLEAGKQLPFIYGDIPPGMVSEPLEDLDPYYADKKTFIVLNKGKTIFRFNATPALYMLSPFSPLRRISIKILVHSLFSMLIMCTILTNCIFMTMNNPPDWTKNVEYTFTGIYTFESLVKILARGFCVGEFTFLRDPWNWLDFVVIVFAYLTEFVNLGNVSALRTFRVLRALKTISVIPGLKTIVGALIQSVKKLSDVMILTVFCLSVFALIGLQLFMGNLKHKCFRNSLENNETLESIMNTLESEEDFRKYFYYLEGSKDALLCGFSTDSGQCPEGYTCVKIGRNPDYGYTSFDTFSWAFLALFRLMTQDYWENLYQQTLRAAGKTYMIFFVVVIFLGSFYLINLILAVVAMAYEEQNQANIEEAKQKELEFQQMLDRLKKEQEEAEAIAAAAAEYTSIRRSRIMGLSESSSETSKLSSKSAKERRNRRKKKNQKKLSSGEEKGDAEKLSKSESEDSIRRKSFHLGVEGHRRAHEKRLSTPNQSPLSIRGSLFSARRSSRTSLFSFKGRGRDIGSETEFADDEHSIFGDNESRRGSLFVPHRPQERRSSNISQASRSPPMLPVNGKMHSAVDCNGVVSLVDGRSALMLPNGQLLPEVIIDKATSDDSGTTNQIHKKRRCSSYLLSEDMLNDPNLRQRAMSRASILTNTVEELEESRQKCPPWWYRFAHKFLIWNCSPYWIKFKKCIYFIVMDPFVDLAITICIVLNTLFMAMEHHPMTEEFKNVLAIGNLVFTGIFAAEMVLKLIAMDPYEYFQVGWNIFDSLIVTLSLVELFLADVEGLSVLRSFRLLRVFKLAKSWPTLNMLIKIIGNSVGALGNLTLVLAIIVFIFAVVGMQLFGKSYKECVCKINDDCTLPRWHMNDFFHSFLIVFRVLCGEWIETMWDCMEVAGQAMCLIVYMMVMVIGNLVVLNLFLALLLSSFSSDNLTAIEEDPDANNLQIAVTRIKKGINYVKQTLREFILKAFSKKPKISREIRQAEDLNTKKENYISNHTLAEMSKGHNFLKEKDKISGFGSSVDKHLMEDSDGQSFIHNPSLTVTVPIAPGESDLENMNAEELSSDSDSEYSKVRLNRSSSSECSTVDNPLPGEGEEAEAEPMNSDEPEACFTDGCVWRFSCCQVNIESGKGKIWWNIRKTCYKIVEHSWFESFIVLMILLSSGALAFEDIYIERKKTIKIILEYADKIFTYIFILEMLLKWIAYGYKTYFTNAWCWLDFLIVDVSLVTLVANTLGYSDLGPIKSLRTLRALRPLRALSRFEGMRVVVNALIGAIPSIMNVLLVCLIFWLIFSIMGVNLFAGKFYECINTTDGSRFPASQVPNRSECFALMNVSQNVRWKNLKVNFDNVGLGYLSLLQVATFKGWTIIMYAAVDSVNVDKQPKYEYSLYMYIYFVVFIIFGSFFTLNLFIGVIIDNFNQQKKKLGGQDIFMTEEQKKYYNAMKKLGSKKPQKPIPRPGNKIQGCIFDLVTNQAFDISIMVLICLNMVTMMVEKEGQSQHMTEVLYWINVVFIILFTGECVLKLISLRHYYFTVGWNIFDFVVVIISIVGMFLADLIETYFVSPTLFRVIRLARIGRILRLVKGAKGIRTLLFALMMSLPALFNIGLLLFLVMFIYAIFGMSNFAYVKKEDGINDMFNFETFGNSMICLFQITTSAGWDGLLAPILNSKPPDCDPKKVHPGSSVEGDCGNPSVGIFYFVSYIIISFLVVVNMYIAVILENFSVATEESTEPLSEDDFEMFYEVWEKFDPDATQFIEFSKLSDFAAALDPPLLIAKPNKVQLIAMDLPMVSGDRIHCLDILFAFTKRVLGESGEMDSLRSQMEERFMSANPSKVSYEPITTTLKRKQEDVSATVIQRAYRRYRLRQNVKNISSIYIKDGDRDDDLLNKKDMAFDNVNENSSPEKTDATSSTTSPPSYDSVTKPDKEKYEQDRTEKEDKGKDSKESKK

Consider `COc1ccc(-c2cc(F)ccc2F)cc1-n1c(=O)ccc2cc(S(=O)(=O)Nc3ccon3)ccc21` [Example 840, 1-(2′,5′-difluoro-4-methoxy-3-biphenylyl)-N-3-isoxazolyl-2-oxo-1,2-dihydro-6-quinolinesulfonamide], for which the concentration for half-maximal inhibition (IC50) (in-vitro Nav 1.7 PX data) turned out to be 163 nM. `CC(C#N)Oc1cc(-c2cc(F)cc(F)c2)c(F)cc1-n1c(=O)ccc2cc(S(=O)(=O)Nc3ccon3)ccc21` (centres unmarked) [Example 681, 1-(5-(1-cyanoethoxy)-2,3′,5′-trifluoro-[1,1′-biphenyl]-4-yl)-N-(isoxazol-3-yl)-2-oxo-1,2-dihydroquinoline-6-sulfonamide]: half-maximal inhibition (in-vitro Nav 1.7 PX data) (IC50) required 458 nM. In turn, `COc1ccc(Cl)c(-c2ccc(-n3c(=O)ccc4cc(S(=O)(=O)Nc5ccon5)ccc43)c(OC)c2)c1` [Example 1031, 1-(2′-chloro-3,5′-dimethoxy-4-biphenylyl)-N-3-isoxazolyl-2-oxo-1,2-dihydro-6-quinolinesulfonamide] returned a 50% inhibitory concentration (IC50) under setting [1] of 25 nM. Regarding `COc1cc(-c2ccc(C(F)(F)F)cc2)c(F)cc1-n1c(=O)ccc2cc(S(=O)(=O)Nc3ncc(F)cn3)ccc21` [Example 796, 1-(2-fluoro-5-methoxy-4′-(trifluoromethyl)-4-biphenylyl)-N-(5-fluoro-2-pyrimidinyl)-2-oxo-1,2-dihydro-6-quinolinesulfonamide], where the note is “in-vitro Nav 1.7 PX data”, inhibition was half-maximal at 33 nM (IC50). In turn, `COc1cc(F)cc(-c2ccc(-n3c(=O)ccc4cc(S(=O)(=O)Nc5ncco5)ccc43)c(OC)c2)c1` [Example 1005, 1-(3′-fluoro-3,5′-dimethoxy-4-biphenylyl)-N-1,3-oxazol-2-yl-2-oxo-1,2-dihydro-6-quinolinesulfonamide] yielded a 50% inhibitory concentration (IC50) (in-vitro Nav 1.7 PX data) of 268 nM. `COc1cc(-c2ccc(C)c(C#N)c2)c(F)cc1-n1c(=O)ccc2cc(S(=O)(=O)Nc3ccon3)ccc21` (atropisomer, axis not shown; (P)) [Example 524, (P)-1-(3′-cyano-2-fluoro-5-methoxy-4′-methyl-4-biphenylyl)-N-3-isoxazolyl-2-oxo-1,2-dihydro-6-quinolinesulfonamide] showed a 50% inhibitory concentration (IC50) (in-vitro PatchXpress (PX)) of 25 nM. Regarding `COc1cc(-c2ccc(F)c(Cl)c2)ccc1-n1c(=O)ccc2cc(S(=O)(=O)Nc3ccon3)ccc21` (atropisomer, axis not shown; (M)) [Example 577, (M)-1-(3′-chloro-4′-fluoro-3-methoxy-4-biphenylyl)-N-3-isoxazolyl-2-oxo-1,2-dihydro-6-quinolinesulfonamide], 7140 nM corresponded to half-maximal inhibition (IC50). `COc1cc(Br)c(F)cc1-n1c(=O)ccc2cc(S(=O)(=O)Nc3cc(OCC(C)C)ncn3)ccc21` (atropisomer, axis not shown; (P)) [Example 1187, (P)-1-(4-bromo-5-fluoro-2-methoxyphenyl)-N-(6-(2-methylpropoxy)-4-pyrimidinyl)-2-oxo-1,2-dihydro-6-quinolinesulfonamide] displayed an IC50 of 1660 nM. On to `COc1cc(-c2cccc(C)c2F)c(F)cc1-n1c(=O)ccc2cc(S(=O)(=O)Nc3ccon3)ccc21` [Example 719, 1-(2,2′-difluoro-5-methoxy-3′-methyl-4-biphenylyl)-N-3-isoxazolyl-2-oxo-1,2-dihydro-6-quinolinesulfonamide], for which, where the note is “in-vitro Nav 1.7 PX data”, the IC50 is 49 nM. The compound `COc1cc(-c2cccc(C(F)(F)F)c2)ccc1-n1c(=O)cnc2cc(S(=O)(=O)Nc3ncccn3)ccc21` [Example 1200, 1-(3-methoxy-3′-(trifluoromethyl)-4-biphenylyl)-2-oxo-N-2-pyrimidinyl-1,2-dihydro-6-quinoxalinesulfonamide] had an IC50 of 78 nM.

`COc1cc(-c2cccc(Cl)c2)c(C)cc1-n1c(=O)ccc2cc(S(=O)(=O)Nc3ncccn3)ccc21` (atropisomer, axis not shown; (P)) [Example 321, (P)-1-(3′-chloro-5-methoxy-2-methyl-4-biphenylyl)-2-oxo-N-2-pyrimidinyl-1,2-dihydro-6-quinolinesulfonamide]: the IC50 is 10 nM. As to `COc1nc(C#CC2CCCC2)c(Cl)cc1-n1c(=O)ccc2cc(S(=O)(=O)Nc3cccnn3)ccc21` (atropisomer, axis not shown; (P)) [Example 1240, (P)-1-(5-chloro-6-(cyclopentylethynyl)-2-methoxy-3-pyridinyl)-2-oxo-N-3-pyridazinyl-1,2-dihydro-6-quinolinesulfonamide], it took 124 nM to reach half-maximal inhibition (IC50). Under “in-vitro Nav 1.7 PX data”, `COc1cc(-c2cc(F)cc(C(F)(F)F)c2)ccc1-n1c(=O)ccc2cc(S(=O)(=O)Nc3ccnc(C)n3)ccc21` [Example 1100, 1-(3′-fluoro-3-methoxy-5′-(trifluoromethyl)-4-biphenylyl)-N-(2-methyl-4-pyrimidinyl)-2-oxo-1,2-dihydro-6-quinolinesiilfonamide] displayed a concentration for half-maximal inhibition (IC50) of 37 nM.

As to `COc1nc(C#CC2CCCC2)c(Cl)cc1-n1c(=O)ccc2cc(S(=O)(=O)Nc3cccnn3)ccc21` [Example 646, 1-(5-chloro-6-(cyclopentylethynyl)-2-methoxy-3-pyridinyl)-2-oxo-N-3-pyridazinyl-1,2-dihydro-6-quinolinesulfonamide], it took 1100 nM to reach half-maximal inhibition (in-vitro Nav 1.7 PX data) (IC50).

In turn, `COc1cc(-c2cc(Cl)ccc2C)c(F)cc1-n1c(=O)ccc2cc(S(=O)(=O)Nc3ccon3)ccc21` [Example 743, 1-(5′-chloro-2-fluoro-5-methoxy-2′-methyl-4-biphenylyl)-N-3-isoxazolyl-2-oxo-1,2-dihydro-6-quinolinesulfonamide] yielded an IC50 (in-vitro Nav 1.7 PX data) of 5 nM. `COc1cc(-c2cccnc2)c(F)cc1-n1c(=O)ccc2cc(S(=O)(=O)Nc3ccon3)ccc21` [Example 404, 1-(5-fluoro-2-methoxy-4-(3-pyridinyl)phenyl)-N-3-isoxazolyl-2-oxo-1,2-dihydro-6-quinolinesulfonamide] had an IC50 (in-vitro PatchXpress (PX)) of 4300 nM. On to `COc1cc(-c2cccc(Cl)c2)ccc1-n1c(=O)ccc2cc(S(=O)(=O)Nc3ccon3)ccc21` [Example 350, P-1-(3′-chloro-3-methoxy-[1,1′-biphenyl]-4-yl)-N-(isoxazol-3-yl)-2-oxo-1,2-dihydroquinoline-6-sulfonamide], for which half-maximal inhibition (IC50) required 26 nM. Still for that read-out and setting: the result for `COc1cc(-c2cccc(F)c2)c(F)cc1-n1c(=O)cc(C)c2cc(S(=O)(=O)Nc3ccon3)ccc21` (atropisomer, axis not shown; (P)) [Example 572, (P)-1-(2,3′-difluoro-5-methoxy-4-biphenylyl)-N-3-isoxazolyl-4-methyl-2-oxo-1,2-dihydro-6-quinolinesulfonamide] reads 485 nM. Turning to `COc1cc(-c2ccc(OC)c(-n3c(=O)ccc4cc(S(=O)(=O)Nc5ccon5)ccc43)c2)ccc1Cl` [Example 870, 1-(4′-chloro-3′,4-dimethoxy-3-biphenylyl)-N-3-isoxazolyl-2-oxo-1,2-dihydro-6-quinolinesulfonamide], 23 nM corresponded to half-maximal inhibition (in-vitro Nav 1.7 PX data) (IC50). `COc1ccc(-c2cccc(C#N)c2)cc1-n1c(=O)ccc2cc(S(=O)(=O)Nc3ccon3)ccc21` [Example 493, 1-(3′-cyano-4-methoxy-3-biphenylyl)-N-3-isoxazolyl-2-oxo-1,2-dihydro-6-quinolinesulfonamide] yielded an IC50 of 418 nM. In the case of `COc1cc(-c2cc(F)c(F)cc2C)ccc1-n1c(=O)ccc2cc(S(=O)(=O)Nc3ccon3)ccc21` [Example 1064, 1-(4′,5′-difluoro-3-methoxy-2′-methyl-4-biphenylyl)-N-3-isoxazolyl-2-oxo-1,2-dihydro-6-quinolinesulfonamide], the midpoint of inhibition under setting [1], the IC50, lay at 13 nM. Turning to `COc1cc([C@H]2CC[C@@H](C)CC2)c(F)cc1-n1c(=O)ccc2cc(S(=O)(=O)Nc3ccon3)ccc21` [Example 1083, 1-(5-fluoro-2-methoxy-4-(cis-4-methylcyclohexyl)phenyl)-N-3-isoxazolyl-2-oxo-1,2-dihydro-6-quinolinesulfonamide, 1-(5-fluoro-2-methoxy-4-(trans-4-methylcyclohexyl)phenyl)-N-3-isoxazolyl-2-oxo-1,2-dihydro-6-quinolinesulfonamide], the IC50 (in-vitro Nav 1.7 PX data) turned out to be 10 nM.

As to “1-(4′-chloro-2-fluoro-3′,5-dimethyl-4-biphenylyl)-2-oxo-N-3-pyridazinyl-1,2-dihydro-6-quinolinesulfonamide [Example 973]”, where the note is “in-vitro Nav 1.7 PX data”, the IC50 was 90 nM.

The compound `COc1cc(C[C@H]2CCOC2)c(F)cc1-n1c(=O)ccc2cc(S(=O)(=O)Nc3ccon3)ccc21` (atropisomer, axis not shown; (P)) [Example 1234, (P)-1-(5-fluoro-2-methoxy-4-((3S)-tetrahydro-3-furanylmethyl)phenyl)-N-3-isoxazolyl-2-oxo-1,2-dihydro-6-quinolinesulfonamide] registered a half-inhibitory concentration (IC50) of 1140 nM.

In the case of `COc1cc(-c2cc(OC)c(-n3c(=O)ccc4cc(S(=O)(=O)Nc5ccon5)ccc43)cc2F)ccc1Cl` [Example 700, 1-(4′-chloro-2-fluoro-3′,5-dimethoxy-4-biphenylyl)-N-3-isoxazolyl-2-oxo-1,2-dihydro-6-quinolinesulfonamide], under “in-vitro Nav 1.7 PX data”, inhibition was half-maximal at 5 nM (IC50). Compound `COc1cc(-c2cc(F)cc(Cl)c2)c(C)cc1-n1c(=O)ccc2cc(S(=O)(=O)Nc3ccon3)ccc21` (atropisomer, axis not shown; (P)) [Example 417, (P)-1-(3′-chloro-5′-fluoro-5-methoxy-2-methyl-4-biphenylyl)-N-3-isoxazolyl-2-oxo-1,2-dihydro-6-quinolinesulfonamide] displayed a half-maximal inhibitory concentration (IC50) of 9 nM. Under “in-vitro Nav 1.7 PX data”, `COc1cc(CC2CCCCC2)c(F)cc1-n1c(=O)ccc2cc(S(=O)(=O)Nc3ncc(F)cn3)ccc21` [Example 1111, 1-(4-(cyclohexylmethyl)-5-fluoro-2-methoxyphenyl)-N-(5-fluoro-2-pyrimidinyl)-2-oxo-1,2-dihydro-6-quinolinesulfonamide] yielded a 50% inhibitory concentration (IC50) of 88 nM. Consider `COc1cc(-c2ccc(F)c(C#N)c2)ccc1-n1c(=O)ccc2cc(S(=O)(=O)Nc3ccon3)ccc21` [Example 1020, 1-(3′-cyano-4′-fluoro-3-methoxy-4-biphenylyl)-N-3-isoxazolyl-2-oxo-1,2-dihydro-6-quinolinesulfonamide], for which the IC50 (in-vitro Nav 1.7 PX data) amounted to 82 nM. Where the note is “in-vitro Nav 1.7 PX data”, `COc1ccccc1-c1cc(OC)c(-n2c(=O)ccc3cc(S(=O)(=O)Nc4ccon4)ccc32)cc1F` [Example 956, 1-(2-fluoro-2′,5-dimethoxy-4-biphenylyl)-N-3-isoxazolyl-2-oxo-1,2-dihydro-6-quinolinesulfonamide] showed an IC50 of 99 nM.

For the origin of these results see US9212182B2, “Bicyclic sulfonamide compounds as sodium channel inhibitors” (AMGEN INC., priority 2013, dated 2015).
